Measurements as given in PubChem BioAssay AID1337 (NMMLSC, 2008).

The molecules below were run against Ras-related protein Rab-2A (Canis lupus familiaris) (UniProt P61105) (assay: potency of blocking fluorescent GTP on Rab2A – biochemical, GST-Rab2 beads, Bodipy-FL-GTP, flow cytometry, multiplex, dose response (AID 1337)). Settings: Bead-bound GST-Rab2 wt, Bodipy-FL-GTP binding; call rule not given here.

EC50, active:
O=[N+]([O-])c1cc2oc3c(c2c(C=NCc2ccccc2)c1O)CCCC3 4.02 µM
COC(=O)c1c(N2C(=O)[C@H]3[C@@H](C2=O)[C@]2(C(=O)Nc4c(C)cc(C)cc42)N2CCC[C@@H]32)sc(C)c1C 1.99 µM
OC(CNCCC1C=Nc2ccccc21)Cn1c2ccc(Cl)cc2c2cc(Cl)ccc21 (stereo not drawn) 26.3 µM
